According to PubChem BioAssay (NCI):
Values joined by “and” are separate entries in the source; they are usually repeats but may differ in a detail not shown here. Equal values may be shown once.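 96-well plates; 48 h exposure; 5 concentrations. Endpoints by linear interpolation between flanking doses. Not reached: highest tested concentration assigned. GI50: concentration for 50% inhibition of growth. TGI denotes the concentration required for complete inhibition of growth.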

Key:
Experiment in all cases: inhibition of tumour cell growth, NCI panel, 48 h
RXF 393 renal = test system: RXF 393 renal
CAKI-1 renal = test system: CAKI-1 renal
SR leukemia = test system: SR leukemia
SK-MEL-5 melanoma = test system: SK-MEL-5 melanoma
SF-295 CNS = test system: SF-295 CNS
OVCAR-3 ovarian = test system: OVCAR-3 ovarian
SK-MEL-2 melanoma = test system: SK-MEL-2 melanoma
NCI-H522 lung = test system: NCI-H522 lung
NCI-H23 lung = test system: NCI-H23 lung
BT-549 breast = test system: BT-549 breast

Compound | GI50 (RXF 393 renal) [µM] | TGI (RXF 393 renal) [µM] | GI50 (CAKI-1 renal) [µM] | TGI (CAKI-1 renal) [µM] | GI50 (SR leukemia) | TGI (SR leukemia) | GI50 (SK-MEL-5 melanoma) [µM] | TGI (SK-MEL-5 melanoma) [µM] | GI50 (SF-295 CNS) [µM] | TGI (SF-295 CNS) [µM] | GI50 (OVCAR-3 ovarian) [µM] | TGI (OVCAR-3 ovarian) [µM] | GI50 (SK-MEL-2 melanoma) [µM] | TGI (SK-MEL-2 melanoma) [µM] | GI50 (NCI-H522 lung) [µM] | TGI (NCI-H522 lung) [µM] | TGI (NCI-H23 lung) [µM] | GI50 (NCI-H23 lung) [µM] | GI50 (BT-549 breast) [µM] | TGI (BT-549 breast) [µM]
CC(C)(C)CC(C)(C)N(CSc1ccc(Cl)cc1)CSc1ccc(Cl)cc1 | 1.87 | 7.06 | 1.78 | 4.55 | 1.23 µM | 5.51 µM | 1.29 | 2.61 | 0.316 | 1.33 | 1.78 | 4.25 | 2.54 | 6.28 | 1.65 | 3.08 |  |  |  | 
O=C1NC2(CCCC2)/C(=N\O)C12CCCC2 |  | > 100 |  | > 100 |  | > 100 µM |  | > 100 |  | > 100 |  | > 100 |  | > 100 |  | > 100 | > 100 |  |  | 
CC(C)(C)OC(=O)N1CC(Cn2cc(C(F)(F)F)c3c(Cl)ncnc32)C1 | 1.43 | 3.59 |  |  | 0.726 µM | > 100 µM | 1.79 | 3.21 | 1.99 | 4.75 | 1.92 | 3.6 | 1.84 | 3.47 | 13.3 | 28.4 | 3.58 | 1.84 | 1.62 | 3.06
Clc1ccccc1C1N2CCCCC2[C@@H]2c3[nH]c4ccccc4c3CCN12 (stereo partly drawn) |  | 40.2 |  |  |  |  |  |  |  | 58.9 |  | 32.6 |  | 34.1 |  |  | 45.6 |  |  | 
O=C(c1ccccn1)c1nc(-c2ccc(Cl)c(Cl)c2)nc2ccc(Cl)cc12 |  | 46.8 |  | > 100 |  |  |  | > 100 |  | > 100 |  | > 100 |  | > 100 |  |  | 87.5 |  |  | 
O=c1c2[nH]c3ccccc3c2nc2n1CCS2 | > 100 | > 100 | 38.7 | > 100 |  |  | > 100 | > 100 | > 100 | > 100 | > 100 | > 100 | > 100 | > 100 | > 100 | > 100 | > 100 | > 100 |  | 
COc1ccc(OC)c(/C=C/C(=O)C(C)(C)C)c1 |  | 34.3 |  | 39.1 |  |  |  | 29.1 |  | 67.4 |  | 49.5 |  |  |  | 30.4 | 40.4 |  |  | 
C=CC[N+]1(CCO)CCN=C1CCCCCCCCCCCCC (stereo not drawn) | 1.44 | 2.81 | 1.65 | 3.15 |  |  | 1.6 | 2.95 | 1.81 | 3.3 |  |  | 2.04 | 3.69 |  |  | 2.82 | 1.5 | 1.76 | 3.24
CN(C)CCNC(=O)c1cccc2ccc(-c3cccnc3)nc12 |  | 19.5 |  | 32.9 |  |  |  | 12.9 |  | 24.1 |  | 36.9 |  | 21.4 |  |  | 16.1 |  |  | 
C/C=C/C(=O)[C@@H](O)C(C)C |  | > 100 |  | > 100 |  | > 100 µM |  | > 100 |  | > 100 |  | > 100 |  | > 100 |  | > 100 | > 100 |  |  | 
COc1nc2c(cc1S(=O)(=O)c1ccccc1)CCc1c-2cnn1Cc1ccccc1 | 6.04 | > 100 | 5.02 | > 100 |  |  | 2.89 | > 100 | 9.47 | > 100 | 9.35 | > 100 | 30.4 | > 100 |  |  | > 100 | 8.45 | 8.07 | > 100
C=CC(=O)NCCOc1cccc(Nc2cc(NCCCNC(=O)C3CCC3)c(Br)cn2)c1 | 0.283 | 0.639 | 0.434 | 1.75 |  |  | 1.39 | 5.24 | 1.34 | 23.4 | 0.836 | 3.75 | 2.62 | 6.55 | 0.819 | 4.96 | 7.16 | 1.07 | 0.603 | 1.93
Cc1cc2c(=O)cc(-c3ccc(C(F)(F)F)cc3)oc2c(C(=O)O)c1C |  | > 100 |  | > 100 |  |  |  | > 100 |  | > 100 |  | > 100 |  | > 100 |  | > 100 | > 100 |  |  | 
CCOc1ccccc1NC(=O)C(=O)C(C(=O)c1ccc2ccccc2c1)C1OC(=O)c2ccccc21 (stereo not drawn) |  | 9.05 |  | 36.8 |  |  |  | 24.5 |  |  |  | 52 |  | 29.4 |  | 27.4 | 26.2 |  |  | 
COc1cc(OC)cc(-c2ccc(-c3ccc(C(=N)N)s3)s2)c1 | 1.25 | 2.99 | 1.38 | 2.78 | 0.331 µM and 0.244 µM | 0.918 µM and 0.598 µM | 1.41 | 2.81 | 1.65 | 3.22 | 1.81 | 3.76 | 1.62 | 3.14 | 1.77 | 3.55 | 3.34 | 1.66 |  | 
O=C1OCC2=C1C(c1cccc(C(F)(F)F)c1)c1cc3c(cc1N2CCO)OCO3 (stereo not drawn) |  |  | 1.76 | > 50 |  |  | 0.937 | 15.9 | 0.801 | > 50 | 1.32 | > 50 | 1.43 | > 50 | 0.573 | 2.16 | > 50 | 2.72 | 0.919 | 27.3
O=c1c2cc(Br)ccc2nc(-c2ccccc2)n1NCC1(O)OCC(O)C(O)C1O (stereo not drawn) |  | > 100 |  | > 100 |  | > 100 µM |  | > 100 |  | > 100 |  | > 100 |  | > 100 |  | > 100 | > 100 |  |  | 
Cc1ccc(Nc2[nH]c(C(=O)c3ccc(Cl)cc3)c(N)c2C(=S)Nc2ccccc2)nc1 | 35.9 | > 100 | 25.3 | 76.4 |  |  | 14 | 33.7 | 21.5 | 67.3 | 29.4 | 74 | 28.1 | > 100 | 24 | 73.2 | > 100 | 35.1 | 30.7 | > 100
